This passage reports Hepatotoxicity results from ChEMBL document CHEMBL1697731, “Cheminformatics analysis of assertions mined from literature that describe drug-induced liver injury in different species” (Chem Res Toxicol, 2010).

Series [1] concerns Hepatotoxicity. Briefly: Literature-mined compound from Fourches et al multi-species drug-induced liver injury (DILI) dataset, effect in humans. Particulars: human.
Series [2] relates to Hepatotoxicity. Briefly: Literature-mined compound from Fourches et al multi-species drug-induced liver injury (DILI) dataset, effect in rodents. Conditions: rodentia.
Series [3] deals with Hepatotoxicity. Briefly: Literature-mined compound from Fourches et al multi-species drug-induced liver injury (DILI) dataset, effect in non-rodents.

`CCC1(c2ccccc2)C(=O)NC(=O)N(C)C1=O` (centres undefined) [MEPHOBARBITAL]: the Hepatotoxicity result was “no drug-induced liver injury reported” in series [1], “drug-induced liver injury reported” in series [2] and “no drug-induced liver injury reported” in series [3].

As to `Cc1nnc(SCC2=C(C(=O)O)N3C(=O)[C@@H](NC(=O)Cn4cnnn4)[C@H]3SC2)s1` [CEFAZOLIN], the Hepatotoxicity result in series [1] is reported as “drug-induced liver injury reported”; in series [2], “drug-induced liver injury reported”; in series [3], “no drug-induced liver injury reported”.

Regarding `Nc1ncnc2nc[nH]c12` [ADENINE], the figures for the Hepatotoxicity entry in series [1], in series [2] and in series [3] were “no drug-induced liver injury reported”, “drug-induced liver injury reported” and “no drug-induced liver injury reported”, respectively.

Consider `CC1=C(/C=C/C(C)=C/C=C/C(C)=C/C(=O)O)C(C)(C)CCC1` [TRETINOIN], for which the Hepatotoxicity entry in series [1] is reported as “drug-induced liver injury reported”; in series [2] it was “drug-induced liver injury reported”; in series [3], “no drug-induced liver injury reported”.

On to `CNC(=O)OCc1cccc(COC(=O)NC)n1` [PYRICARBATE], for which the results for the Hepatotoxicity entry in series [1], in series [2] and in series [3] were “drug-induced liver injury reported”, “drug-induced liver injury reported” and “no drug-induced liver injury reported”, respectively.

In the case of `C#C[C@]1(O)C=C[C@H]2[C@@H]3CCC4=CC(=O)CC[C@@H]4[C@H]3CC[C@@]21CC` [GESTODENE], the Hepatotoxicity result in series [1] is “drug-induced liver injury reported”; in series [2], “no drug-induced liver injury reported”; in series [3], “no drug-induced liver injury reported”.

Take `COc1ccc(O)cc1` [MEQUINOL]: the Hepatotoxicity entry in series [1] is “no drug-induced liver injury reported”; in series [2] it was “drug-induced liver injury reported”; in series [3], “no drug-induced liver injury reported”.

For the compound `COc1cc([C@@H]2c3cc4c(cc3[C@H](O)[C@H]3COC(=O)[C@H]23)OCO4)cc(OC)c1OC` [PODOFILOX], the results for the Hepatotoxicity result in series [1], in series [2] and in series [3] were “no drug-induced liver injury reported”, “drug-induced liver injury reported” and “no drug-induced liver injury reported”, respectively.

With `CCCCCCCC/C=C\CCCCCCCC(=O)O` [OLEIC ACID], the Hepatotoxicity entry in series [1] was “no drug-induced liver injury reported”; in series [2], “drug-induced liver injury reported”; in series [3], “no drug-induced liver injury reported”.

In the case of `CCCc1nc2c(C)cc(-c3nc4ccccc4n3C)cc2n1Cc1ccc(-c2ccccc2C(=O)O)cc1`, the Hepatotoxicity result in series [1] was “drug-induced liver injury reported”; in series [2] it was “drug-induced liver injury reported”; in series [3], “no drug-induced liver injury reported”.

As for `CC(=O)O[C@]1(C(C)=O)CC[C@H]2[C@@H]3C[C@H](C)C4=CC(=O)CC[C@]4(C)[C@H]3CC[C@@]21C` [MEDROXYPROGESTERONE ACETATE], the Hepatotoxicity result in series [1] is “no drug-induced liver injury reported”; in series [2], “drug-induced liver injury reported”; in series [3] it was “no drug-induced liver injury reported”.

Consider `COc1cc([C@@H]2c3cc4c(cc3[C@@H](O[C@@H]3O[C@@H]5CO[C@@H](c6cccs6)O[C@H]5[C@H](O)[C@H]3O)[C@H]3COC(=O)[C@H]23)OCO4)cc(OC)c1O` [TENIPOSIDE], for which the results for the Hepatotoxicity result in series [1], in series [2] and in series [3] were “no drug-induced liver injury reported”, “drug-induced liver injury reported” and “no drug-induced liver injury reported”, respectively.

Turning to `CC(C(=O)O)c1cccc(C(=O)c2ccccc2)c1` (centres undefined) [KETOPROFEN], the figures for the Hepatotoxicity entry in series [1], in series [2] and in series [3] were “drug-induced liver injury reported”, “no drug-induced liver injury reported” and “no drug-induced liver injury reported”, respectively.

On to `COC(=O)C1=C(C)NC(C)=C(C(=O)OC)C1c1ccccc1[N+](=O)[O-]` [NIFEDIPINE], for which the Hepatotoxicity entry in series [1], in series [2] and in series [3] was “drug-induced liver injury reported” in each case.

For `Clc1ccc2c(c1)C(c1ccccc1)=NCc1nncn1-2` [ESTAZOLAM], the Hepatotoxicity entry in series [1] was “no drug-induced liver injury reported”; in series [2], “drug-induced liver injury reported”; in series [3] it was “no drug-induced liver injury reported”.

`Cn1c(=O)c2c(ncn2C)n(C)c1=O` [CAFFEINE]: the Hepatotoxicity entry is listed as “drug-induced liver injury reported” in series [1], “drug-induced liver injury reported” in series [2] and “no drug-induced liver injury reported” in series [3].

Consider `Clc1ccc(COC(Cn2ccnc2)c2ccc(Cl)cc2Cl)cc1` (centres undefined) [ECONAZOLE], for which the Hepatotoxicity result in series [1] is recorded as “no drug-induced liver injury reported”; in series [2], “drug-induced liver injury reported”; in series [3] it was “no drug-induced liver injury reported”.

`O=C1CN(/N=C/c2ccc([N+](=O)[O-])o2)C(=O)N1CO` [NIFURTOINOL]: the figures for the Hepatotoxicity entry in series [1], in series [2] and in series [3] were “drug-induced liver injury reported”, “no drug-induced liver injury reported” and “no drug-induced liver injury reported”, respectively.

For `CO[C@@H]1[C@@H](OC(N)=O)[C@@H](O)[C@H](Oc2ccc3c(O)c(NC(=O)c4ccc(O)c(CC=C(C)C)c4)c(=O)oc3c2C)OC1(C)C` [NOVOBIOCIN], the Hepatotoxicity result is given as “drug-induced liver injury reported” in series [1], “drug-induced liver injury reported” in series [2] and “no drug-induced liver injury reported” in series [3].

Turning to `COC(=O)[C@H]1[C@H]2C[C@@H]3c4[nH]c5cc(OC)ccc5c4CCN3C[C@H]2C[C@@H](OC(=O)c2cc(OC)c(OC)c(OC)c2)[C@@H]1OC` [RESERPINE], the Hepatotoxicity entry in series [1] was “no drug-induced liver injury reported”; in series [2] it was “drug-induced liver injury reported”; in series [3], “no drug-induced liver injury reported”.

`CS(=O)(=O)c1ccc([C@@H](O)[C@@H](CO)NC(=O)C(Cl)Cl)cc1` [THIAMPHENICOL]: the figures for the Hepatotoxicity entry in series [1], in series [2] and in series [3] were “drug-induced liver injury reported”, “drug-induced liver injury reported” and “no drug-induced liver injury reported”, respectively.

Consider `C[C@@H](O)[C@H]1C(=O)N2C(C(=O)O)=C(S[C@@H]3CN[C@H](C(=O)N(C)C)C3)[C@H](C)[C@H]12` [MEROPENEM], for which the Hepatotoxicity entry in series [1] is reported as “drug-induced liver injury reported”; in series [2] it was “no drug-induced liver injury reported”; in series [3], “no drug-induced liver injury reported”.

Take `COc1c2occc2c(OC)c2c(=O)cc(C)oc12` [KHELLIN]: the Hepatotoxicity entry in series [1] is “no drug-induced liver injury reported”; in series [2], “drug-induced liver injury reported”; in series [3] it was “no drug-induced liver injury reported”.
